Among the test systems are A498 renal; HCT-15 colon; HT29 colon; MDA-MB-435; MOLT-4 leukemia; OVCAR-8 ovarian; SF-268 CNS; SK-MEL-28 melanoma; SR leukemia; MALME-3M melanoma.
What all share (assay): NCI tumour cell line growth inhibition, 48 h

Where “and” joins values, the source holds several entries; their conditions need not be identical. Identical values can stand only once.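 Assay format: 96-well plates, 48-hour exposure. At the GI50, growth is halved. TGI: total growth inhibition.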

Consider `Nc1ncnc2c1nc(-c1ccccc1)n2C1OC(CO)C(O)C1O` (stereo not given), for which the TGI in the assay with A498 renal, with HCT-15 colon, in the assay on HT29 colon, with MDA-MB-435, with MOLT-4 leukemia and with OVCAR-8 ovarian was above 100 µM throughout. The TGI in the assay with SF-268 CNS, with SK-MEL-28 melanoma and in the assay with SR leukemia was above 100 µM throughout.
In the case of `Cc1ccc(S(=O)(=O)/N=c2\ssc(Nc3ccccc3)c2Cl)cc1`, the GI50 was 11.9 µM with HCT-15 colon; 17.2 µM in the assay on HT29 colon; 8.41 µM in the assay on MDA-MB-435; 10.3 µM with MOLT-4 leukemia; 16.5 µM in the assay with OVCAR-8 ovarian; 6.83 µM in the assay with SF-268 CNS. The GI50 with SR leukemia was 9.06 µM. The TGI with HCT-15 colon was 34.4 µM; with HT29 colon it was above 50 µM; in the assay with MDA-MB-435, 22.1 µM; in the assay on MOLT-4 leukemia, above 50 µM; with OVCAR-8 ovarian, above 50 µM; with SF-268 CNS, 21.8 µM. For the same compound, the TGI with SR leukemia stood at 25.1 µM.
On to `Cc1n[nH]c(=S)n1/N=C/c1ccc(F)c(Oc2ccccc2)c1`, for which the GI50 is 49.7 µM in the assay on HCT-15 colon; 27.5 µM in the assay with HT29 colon; 65.7 µM with MALME-3M melanoma; 28.6 µM in the assay with MDA-MB-435; 47.6 µM with MOLT-4 leukemia; 35.7 µM with OVCAR-8 ovarian. For the same compound, the GI50 in the assay on SF-268 CNS was 28.4 µM; in the assay on SK-MEL-28 melanoma it was 7.1 µM. Also, the TGI is above 100 µM in the assay with HCT-15 colon; above 100 µM in the assay on HT29 colon; above 100 µM in the assay on MALME-3M melanoma; 77.1 µM in the assay on MDA-MB-435; above 100 µM with MOLT-4 leukemia; above 100 µM with OVCAR-8 ovarian. In addition, the TGI in the assay with SF-268 CNS was above 100 µM; with SK-MEL-28 melanoma, 82.6 µM.
Turning to `CC(=O)O[C@H]1C(=O)O[C@@H]2C[C@H]3C(C)=CC(=O)[C@@H](O)[C@]3(C)[C@H]3[C@@]4(O)OC[C@]32[C@@H]1[C@@H](C)[C@H]4O`, the GI50 is 187 nM in the assay on A498 renal; 0.0399 µM in the assay on HCT-15 colon; 0.0374 µM in the assay with HT29 colon; below 0.01 µM with MALME-3M melanoma; below 0.01 µM with MOLT-4 leukemia; 0.0266 µM in the assay on OVCAR-8 ovarian. For the same compound, the results for the GI50 in the assay on SF-268 CNS and with SK-MEL-28 melanoma were 0.0173 µM and below 0.0104 µM, respectively. The TGI in the assay with A498 renal is 1.19 µM and 0.385 µM; with HCT-15 colon, 0.738 µM and 1.03 µM; with HT29 colon, 1.38 µM and 1.26 µM; with MALME-3M melanoma, 0.062 µM and 0.0429 µM; in the assay with MDA-MB-435, 0.233 µM; in the assay on OVCAR-8 ovarian, 1.55 µM and 0.218 µM. The TGI was 0.0585 µM and 0.184 µM in the assay with SF-268 CNS; 0.0577 µM and 0.142 µM in the assay on SK-MEL-28 melanoma.
Regarding `Cc1cc(O)c(C(c2cccnc2)c2c(O)cc(C)[nH]c2=O)c(=O)[nH]1`, the TGI in the assay on HCT-15 colon, in the assay on HT29 colon, in the assay with MALME-3M melanoma, in the assay on MDA-MB-435, in the assay with MOLT-4 leukemia and with OVCAR-8 ovarian was above 100 µM in each case. Further, the TGI with SF-268 CNS, with SK-MEL-28 melanoma and in the assay with SR leukemia was above 100 µM in each case.
In the case of `Cn1ncc2c(/N=C/c3cccs3)[nH]c(=S)nc21`, the GI50 in the assay on A498 renal was 689 nM; with HCT-15 colon, 42.4 µM; in the assay with HT29 colon, 52.3 µM; in the assay with MALME-3M melanoma, 34 µM; in the assay with MDA-MB-435, 29.9 µM; in the assay with MOLT-4 leukemia, 44.1 µM. The GI50 is 57.5 µM in the assay with OVCAR-8 ovarian, 26.2 µM in the assay with SF-268 CNS and 56.5 µM in the assay on SK-MEL-28 melanoma. Besides, the TGI with A498 renal is 27.5 µM; with HCT-15 colon it was above 100 µM; in the assay with HT29 colon, above 100 µM; in the assay on MALME-3M melanoma, above 80.7 µM; in the assay with MDA-MB-435, above 72.2 µM; in the assay on MOLT-4 leukemia, above 100 µM. In addition, the TGI in the assay on OVCAR-8 ovarian is above 100 µM; with SF-268 CNS, above 94.6 µM; in the assay on SK-MEL-28 melanoma, above 100 µM.
Turning to `C/C(CC(=O)NNc1ccc([N+](=O)[O-])cc1)=N\Nc1ccc([N+](=O)[O-])cc1`, the GI50 in the assay on A498 renal is 7840 nM; in the assay on HCT-15 colon, 19.7 µM; in the assay with HT29 colon it was 7.66 µM; with MALME-3M melanoma, 10.6 µM; in the assay on MDA-MB-435, 4.56 µM; in the assay with MOLT-4 leukemia it was 6.45 µM. Moreover, the GI50 in the assay with OVCAR-8 ovarian is 14.2 µM; with SF-268 CNS, 13.4 µM; in the assay on SK-MEL-28 melanoma, 31.5 µM. Moreover, the TGI in the assay on A498 renal is 47.2 µM; with HCT-15 colon, above 100 µM; with HT29 colon it was above 100 µM; in the assay on MALME-3M melanoma it was 66.5 µM; in the assay with MDA-MB-435 it was above 100 µM; in the assay on MOLT-4 leukemia, above 100 µM. Besides, the values for the TGI in the assay with OVCAR-8 ovarian, in the assay on SF-268 CNS and in the assay on SK-MEL-28 melanoma were 38.1 µM, above 100 µM and above 100 µM, respectively.
As to `COc1ccc(/C(C)=C(\c2ccc(Cl)cc2)c2ccc(OCCN3CCCC3)cc2)cc1F`, the GI50 with HCT-15 colon is 0.848 µM; with HT29 colon, 0.724 µM; in the assay with MALME-3M melanoma, 1.23 µM; in the assay with MDA-MB-435, 1.48 µM; with MOLT-4 leukemia, 3.48 µM; in the assay on OVCAR-8 ovarian it was 4.22 µM. For the same compound, the figures for the GI50 in the assay on SF-268 CNS, in the assay with SK-MEL-28 melanoma and in the assay with SR leukemia were 4.26 µM, 3.13 µM and 1.18 µM, respectively. For the same compound, the TGI in the assay with HCT-15 colon came to 3.38 µM; with HT29 colon it was 3.47 µM; with MALME-3M melanoma, 4.63 µM; in the assay on MDA-MB-435 it was 4.65 µM; in the assay with MOLT-4 leukemia, 8.28 µM; in the assay with OVCAR-8 ovarian, 9.68 µM. In addition, the results for the TGI in the assay with SF-268 CNS, in the assay on SK-MEL-28 melanoma and in the assay with SR leukemia were 8.76 µM, 6.27 µM and 6.47 µM, respectively.
Regarding `CC(=O)Nc1ccc(C(=O)NN2C(=O)C(Cl)C2c2cc(Br)ccc2O)cc1` (stereo not given), the TGI in the assay on HCT-15 colon, in the assay with HT29 colon, in the assay with MALME-3M melanoma, in the assay on MDA-MB-435, with MOLT-4 leukemia and in the assay with OVCAR-8 ovarian was above 100 µM each time. Moreover, the TGI with SF-268 CNS, with SK-MEL-28 melanoma and with SR leukemia was above 100 µM each time.
Turning to `O=C(Nc1n[nH]c2nc(-c3ccco3)ccc12)C1CC1`, the GI50 in the assay on A498 renal is above 25000 nM; in the assay on HCT-15 colon, above 25 µM; in the assay with HT29 colon, above 25 µM; with MALME-3M melanoma, above 25 µM; in the assay with MDA-MB-435, above 25 µM; with MOLT-4 leukemia, above 25 µM. For the same compound, the GI50 in the assay with OVCAR-8 ovarian, in the assay with SF-268 CNS and with SK-MEL-28 melanoma was above 25 µM throughout. The TGI with A498 renal, in the assay on HCT-15 colon, with HT29 colon, in the assay with MALME-3M melanoma, in the assay with MDA-MB-435 and in the assay on MOLT-4 leukemia was above 25 µM throughout. For the same compound, the TGI with OVCAR-8 ovarian, with SF-268 CNS and in the assay with SK-MEL-28 melanoma was above 25 µM throughout.

The values above are taken from PubChem BioAssay (NCI).
